# Reference: patent US9011867B2, “Use of specific peptides in the preparation of a medicament for the treatment of monoclonal gammopathy of undetermined significance (MGUS) or of smoldering multiple myeloma (SMM)” (Ruprecht-Karls-Universitat Heidelberg, priority 2009, dated 2015)
# Tests used:
# [1] = system: Melan-A analogue specific T-cells; assay: IFN-γ ELISpot-assay with peptide pulsed T2 cells, Melan-A analogue specific T-cells as effectors; format: cell-based, human; conditions: for activation of Melan-A analogue specific T-cells by peptide pulsed T2 cells (IFN-γ ELISpot): T-cells from HLA-A2+ HD, ET ratio 2.5/1, FIG. 1A
# [2] = system: HM1.24aa22-30-specific T-cells; assay: IFN-γ ELISpot-assay with peptide pulsed T2 cells, HM1.24aa22-30-specific T-cells as effectors; format: cell-based, human; conditions: T-cells from HLA-A2+ HD; ET ratio 2.5/1; FIG. 1A
Sequence,activation of Melan-A analogue specific T-cells by peptide pulsed T2 cells (IFN-γ ELISpot) [1],"IFN-γ production of Melan-A analogue specific T-cells activated by peptide pulsed T2 cells ([1]; T-cells from MM patient no. 10, FIG. 4B)",activation of HM1.24aa22-30-specific T-cells by peptide pulsed T2 cells (IFN-γ ELISpot) [2]
LLLGIGILV (peptide (HM 1.24)) [HM1.24aa22-30],strong activation,produced IFN-γ,–
VLLGLSALL [HM1.24aa171-179],activated neither,–,activated neither
